PubChem BioAssay (NCI)
Values joined by “and” are separate entries in the source; they are usually repeats but may differ in a detail not shown here. Equal values may be shown once.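 Tested at 5 concentrations; 48 h exposure; 96-well plates; endpoints linearly interpolated, else capped at highest concentration. GI50 is the concentration that inhibits growth by half. TGI: total growth inhibition.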

Key:
Test in all cases: NCI anticancer screen, dose series, 48 h
A498 renal = tested on: A498 renal
EKVX NSCLC = tested on: EKVX NSCLC
IGROV1 ovarian = tested on: IGROV1 ovarian
K-562 leukemia = tested on: K-562 leukemia
KM12 colon = tested on: KM12 colon
NCI-H522 lung = tested on: NCI-H522 lung
SF-268 CNS = tested on: SF-268 CNS
SK-OV-3 ovarian = tested on: SK-OV-3 ovarian
UACC-62 melanoma = tested on: UACC-62 melanoma
ACHN renal = tested on: ACHN renal

| SMILES | TGI (A498 renal) | TGI (EKVX NSCLC) [µM] | TGI (IGROV1 ovarian) | TGI (K-562 leukemia) | TGI (KM12 colon) | TGI (NCI-H522 lung) | TGI (SF-268 CNS) | TGI (SK-OV-3 ovarian) | TGI (UACC-62 melanoma) | GI50 (A498 renal) [µM] | GI50 (ACHN renal) [µM] | TGI (ACHN renal) | GI50 (IGROV1 ovarian) | GI50 (K-562 leukemia) | GI50 (KM12 colon) [µM] | GI50 (NCI-H522 lung) [µM] | GI50 (SF-268 CNS) [µM] | GI50 (SK-OV-3 ovarian) | GI50 (UACC-62 melanoma) [µM] | GI50 (EKVX NSCLC) [µM] |
| --- | --- | --- | --- | --- | --- | --- | --- | --- | --- | --- | --- | --- | --- | --- | --- | --- | --- | --- | --- | --- |
| COc1cc2c(cc1OC)C1C=NC(C(=O)O)(C2)c2ccccc21 (stereo not drawn) | > 100 µM | > 100 | > 100 µM | > 100 µM | > 100 µM | > 100 µM | > 100 µM | > 100 µM | > 100 µM |  |  |  |  |  |  |  |  |  |  |  |
| NS(=O)(=O)c1ccc(-n2nc(-c3ccc(Br)cc3)ccc2=O)cc1 | > 10 µM |  | > 10 µM | > 10 µM | > 10 µM | > 10 µM | > 10 µM | > 10 µM | > 10 µM | > 10 | > 10 | > 10 µM | > 10 µM | 4.85 µM | > 10 | 2.09 | > 10 | > 10 µM | > 10 |  |
| COc1cc2c(c(OC)c1OC)-c1ccc(NCc3ccccc3)c(=O)cc1[C@@H](NC(C)=O)CC2 | 0.771 µM |  | 16.8 µM | > 100 µM | 19.9 µM | 1.52 µM | > 73.5 µM | 0.833 µM | 22.4 µM | 0.248 | 1.39 | > 66.6 µM | 0.595 µM | 0.381 µM | 0.374 | 0.327 | 0.788 | 0.294 µM | 0.526 |  |
| COc1nc2c(cc1S(=O)(=O)c1ccccc1)CCc1c-2cnn1-c1ccccc1Cl |  |  | > 100 µM | > 100 µM | > 100 µM | > 100 µM | > 100 µM | > 100 µM | > 100 µM |  |  |  | > 100 µM | 5.23 µM | 4.49 | 3.02 | 17 | > 100 µM | 7.29 |  |
| COc1ccc(CN2CCCC(C(=O)c3ccc(C(F)(F)F)cc3)C2)c(O)c1 (stereo not drawn) | 33.1 µM |  | > 100 µM | 93.3 µM | 86 µM | 42.2 µM | > 100 µM | > 100 µM | 31.3 µM | 0.0189 | 33.6 | > 100 µM | 52.6 µM | 19.3 µM | 30.5 | 19.3 | 42.1 | 36.1 µM | 12.4 |  |
| COC(=O)[C@@H](C)C[C@H](Cc1ccccc1)NC(=O)c1nc([C@@H](C[C@H](C(C)C)N(C)C(=O)[C@@H](NC(=O)[C@H]2CCCN2C)C(C)C)OC(C)=O)sc1C | 0.00808 µM | > 25 | > 25 µM | > 25 µM | > 25 µM | < 0.0025 µM | > 25 µM | > 25 µM | > 25 µM | < 0.0025 |  |  | < 0.0025 µM | < 0.0025 µM | < 0.0025 | < 0.0025 | 0.00712 | < 0.0025 µM | < 0.0025 | 0.0106 |
| COc1cc([C@@H]2c3cc4c(cc3[C@@H](NC(=O)c3cccc([N+](=O)[O-])c3)C3COC(=O)[C@@H]32)OCO4)cc(OC)c1O (stereo partly drawn) |  | 10.8 | > 37.4 µM | > 100 µM | 10.8 µM |  | 10.7 µM |  | 7.54 µM |  |  | 1.62 µM |  |  |  |  |  |  |  |  |
| S=C1NCCN1C1=Nc2ccccc2CO1 |  | > 100 | > 100 µM | > 100 µM | > 100 µM | > 100 µM | > 100 µM | > 100 µM | > 100 µM |  | > 100 | > 100 µM | 74 µM | > 100 µM | > 100 | > 100 | > 100 | > 100 µM | > 100 | 93.6 |
| CCCCCCCCCCCCCCC1OC(=O)c2ccccc21 (stereo not drawn) | > 100 µM | > 100 | > 100 µM | > 100 µM | > 100 µM |  | > 100 µM | > 100 µM | > 100 µM |  |  | > 100 µM |  |  |  |  |  |  |  |  |
| Cc1nc2nnc(C)n2c2c1C(=O)Nc1ccccc1N2 |  | > 100 | > 100 µM | > 100 µM | > 100 µM | > 100 µM | > 100 µM | > 100 µM | > 100 µM |  |  | > 100 µM |  |  |  |  |  |  |  |  |
| COc1ccc(CNC(=O)COc2ccc(/C=N/Nc3nc4ccccc4s3)cc2)cc1 |  | 32.5 | 6.73 µM |  | > 100 µM | 9.63 µM | 12.2 µM |  | 11.8 µM |  | 1.67 | 3.42 µM | 1.69 µM |  | 2.51 | 2.44 | 3.04 |  | 2.32 | 2.98 |
| CC1CCC[P+](Cc2ccccc2)(c2ccccc2)CC1 (stereo not drawn) | > 100 µM | > 100 | > 100 µM | > 100 µM |  |  | > 100 µM | > 100 µM | > 100 µM |  |  | > 100 µM |  |  |  |  |  |  |  |  |
| O=c1[nH]c(=O)n(C2CC(O)C(CO)O2)cc1C#Cc1c(F)c(F)c(F)c(F)c1F (stereo not drawn) |  | > 100 |  | > 100 µM | > 100 µM |  | > 100 µM | > 100 µM | > 100 µM |  |  | > 100 µM |  |  |  |  |  |  |  |  |
| CC1=CCCC(OC(N)=O)C1 (stereo not drawn) | > 100 µM | > 100 | > 100 µM | > 100 µM | > 100 µM |  | > 100 µM | > 100 µM | > 100 µM |  |  | > 100 µM |  |  |  |  |  |  |  |  |
| CCC1CCC2CCCC(C)N12 (stereo not drawn) |  | > 100 | > 100 µM | > 100 µM | > 100 µM | > 100 µM | > 100 µM |  | > 100 µM |  |  | > 100 µM |  |  |  |  |  |  |  |  |
| NNC(=O)c1cnn(-c2ccnc3c(C(F)(F)F)cccc23)c1N |  | > 100 | > 100 µM | > 100 µM | > 100 µM | > 100 µM | > 100 µM | > 100 µM | > 100 µM |  | > 100 | > 100 µM | > 100 µM | > 100 µM | > 100 | > 100 | > 100 | > 100 µM | > 100 | > 100 |
| ClCc1ccccc1CSc1ncnc2nc[nH]c12 | > 60 µM | > 60 | > 60 µM | > 60 µM | > 60 µM |  | > 60 µM | > 60 µM | > 60 µM | 54.1 | > 60 | > 60 µM | > 60 µM | > 60 µM | > 60 |  | > 60 | > 60 µM | > 60 | > 60 |
| CN1CCN(C(=S)N(C)C(=O)c2ccc(Cl)cc2)CC1 |  |  | > 100 µM | > 100 µM | > 100 µM | > 100 µM | > 100 µM |  | > 100 µM |  |  | > 100 µM |  |  |  |  |  |  |  |  |
| c1ccc(-c2nnc(-c3nn(-c4ccccc4)c4nc5ccccc5nc34)o2)cc1 |  | > 100 | > 100 µM | > 100 µM | > 100 µM | > 100 µM | > 100 µM | > 100 µM | > 100 µM |  |  | > 100 µM |  |  |  |  |  |  |  |  |
| COc1cccc(-c2nc(-c3cnccn3)n(Cc3ccccc3)n2)c1 |  | > 100 | > 100 µM | > 100 µM | > 100 µM | > 100 µM | > 100 µM | > 100 µM | > 100 µM |  |  |  |  |  |  |  |  |  |  |  |
| O=C(O)CCCc1ccc(N(CCCl)CCCl)cc1 | 48.4 µM and 302 µM |  | 65.3 µM and 352 µM and 321 µM | 88.5 µM and 462 µM and 625 µM | 57.8 µM and 351 µM and 485 µM | 13.1 µM and 100 µM and 99.4 µM | 23.7 µM and 220 µM and 169 µM | 52 µM and 402 µM and 498 µM | 23.1 µM and 106 µM and 202 µM | 28.3 | 4.21 | 30.3 µM and 180 µM | 30.5 µM and 158 µM | 21.7 µM and 152 µM |  |  | 4.91 | 20.4 µM and 196 µM |  |  |
| CN=C1NC(=O)/C(=C/c2ccc3ncccc3c2)S1 | 13.7 µM |  | > 25 µM | > 25 µM | > 25 µM | > 25 µM | > 25 µM | 24.8 µM | > 25 µM | 3.86 | 6.77 | > 25 µM | 8.53 µM | 13.7 µM | 19.9 | 3.28 | 10.7 | 7.76 µM | 8.31 |  |
| CC(=O)OCCc1cccnc1/C=N/O |  | > 100 | > 100 µM | > 100 µM | > 100 µM | > 100 µM | > 100 µM | > 100 µM | > 100 µM |  |  | > 100 µM |  |  |  |  |  |  |  |  |
| O=C(/C=C/c1cccs1)c1ccc(Cl)cc1 | > 100 µM | > 100 | > 100 µM |  | > 100 µM |  | > 100 µM | > 100 µM | > 100 µM |  |  | > 100 µM |  |  |  |  |  |  |  |  |
| Clc1cccc(NC=Nc2ccc(-c3nc4ccccc4s3)cc2)c1 |  | 29.9 | 24.3 µM | 18.2 µM | 38.3 µM | 22.3 µM | 46.4 µM | > 50 µM | 38.1 µM |  | 11.7 | 27.6 µM | 11.3 µM | 7.81 µM | 13.7 | 11.8 | 10.6 | 31.7 µM | 13 | 3.97 |
| C[C@]12CCC(=O)C=C1CC[C@@H]1C2CC[C@]2(C)NC(=O)C(C#N)CC12 (stereo partly drawn) | > 100 µM |  | > 100 µM | > 100 µM |  |  |  | > 100 µM | > 100 µM |  |  | > 100 µM |  |  |  |  |  |  |  |  |
| O=C(O)Cc1c[nH]c2ccc(F)cc12 | > 100 µM | > 100 | > 100 µM | > 100 µM | > 100 µM |  |  | > 100 µM | > 100 µM |  |  | > 100 µM |  |  |  |  |  |  |  |  |
| O=C(N/N=C/c1cccc(O)c1O)N/N=C/c1cccc(O)c1O | > 100 µM | > 100 | > 100 µM | > 100 µM | > 100 µM |  | > 100 µM | > 100 µM | > 100 µM |  |  | > 100 µM |  |  |  |  |  |  |  |  |
| C/C(=N\NC(N)=S)c1ccc(C)cc1C | > 100 µM | > 100 | > 100 µM | > 100 µM | > 100 µM |  |  | > 100 µM | > 100 µM |  |  | > 100 µM |  |  |  |  |  |  |  |  |
